“Also recorded” adds a separate entry of the source. Starred links: 1 amine or outer side, 2 acyl side, 3 side chain; linkers in the order of their positions; H or OH if unused. Positions of bridges follow the written chain, without caps; N, C: chain ends. Residues, ends and D or L forms follow the SMILES beside them. X1 = C(C[*:1])C[*:2]
Key:
[1] = target: T1, α-chymotrypsin from bovine pancreas type II (Bos taurus, UniProt P00766); assay: Chymotrypsin stability test; format: in vitro ADME; details: HPLC and LC/MS monitoring
T1 construct: freshly prepared α-chymotrypsin from bovine pancreas type II, ≥40 U/mg; purchased; host or cells: bovine pancreas
Procedure: (§1) Assays were performed using freshly prepared α-chymotrypsin from bovine pancreas type II, ≥40 U/mg. The enzyme was initially reconstituted in HCl […] (1 μg/μL), and kept in ice until used. Peptides stock solutions were prepared in assay buffer (50 mM Tris.HCl pH=8.0, 560 μM calcium chloride, 0.1% Tween-20) containing <3% of DMSO. The reactions were performed at a 200 μL scale, in assay buffer, at final concentrations of 50 μM for peptide and […] for α-chymotrypsin (10 μL from the reconstitution solution). The mixture was incubated at 37° C. and aliquots were withdrawn in portions of 25 μL at different time points for analysis. The removed aliquots were mixed with 25 μL of water 1% TFA, and then treated with a column for detergent removal following the manufacturer's protocol (Pierce, Catalog #:87776). The rate of peptide proteolysis was monitored by HPLC and HPLC-MS analysis. Control experiments were carried out under the same conditions but using BSA instead of α-chymotrypsin.

α-chymotrypsin = target: T2, α-chymotrypsin (Bos taurus, UniProt P00766); assay: Chymotrypsin stability test; format: in vitro ADME, bovine; details: bovine, pH 8; read-out: t1/2 chymotrypsin stability assay (converted)
T2 construct: freshly prepared α-chymotrypsin from bovine pancreas type II, ≥40 U/mg; purchased; host or cells: bovine pancreas
Procedure: as §1

half-life at 50 μM (α-chymotrypsin): 20.5 h
SMILES: CC[C@H](C)[C@H](NC(=O)[C@H](CCCCN)NC(=O)[C@@H]1CSCCCSC[C@H](NC(=O)[C@@H](NC(C)=O)C(C)C)C(=O)N[C@@H](CC(N)=O)C(=O)N[C@@H](CCC(=O)O)C(=O)N[C@@H](CCC(=O)O)C(=O)N1)C(=O)N[C@@H](Cc1c[nH]c2ccccc12)C(=O)N[C@@H](CCCCN)C(=O)N[C@@H](CCCCN)C(=O)N[C@@H](CC(N)=O)C(=O)N[C@H](C(=O)N1CCC[C@H]1C(=O)N[C@@H](Cc1ccccc1)C(=O)N[C@@H](CC(C)C)C(N)=O)[C@@H](C)O [24 (GN-Z24), V[CNEEC](CH2)3KIWKKNTPFL] (Ac-VCNEECKIWKKNTPFL-NH2; linker 2-6 via X1; C-terminus assumed)
stability to chymotrypsin proteolysis [1]: enhanced stability; also recorded: marked protection

From patent publication US11345725B2, “Bis-thioether stapled peptides as inhibitors of PRC2 function” (Research Foundation of the City University of New York, priority 2019, dated 2022)
